Results reported in PubChem BioAssay AID1259411 (Chemical Carcinogenesis Research Information System (CCRIS), 2018).
Calls of active or inactive are those of the source. How the calls were made is not given here.

Test system: rodent carcinogenicity bioassays, tumor incidence
Assay: CCRIS carcinogenicity studies
In short: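 Archive of carcinogenicity, mutagenicity, tumor promotion and tumor inhibition results drawn from journals, NCI reports and other sources, expert-reviewed; covers 1985-2011 and is no longer updated.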

`FC(F)(Cl)Cl` was tested, and the carcinogen call (Species: MOUSE, Strain/Sex: SWISS/FEMALE, Route: INHALATION, Dose: 0, 1000, 5000 PPM 4 HR/D 5 D/WK FOR 78 WK (STUDY DURATION: LIFETIME), Dose: 0, 1000, 5000 PPM 4 HR/D 5 D/WK FOR 78 WK (STUDY DURATION: LIFETIME)) was “inactive; negative”, the carcinogen call (Species: MOUSE, Strain/Sex: SWISS/MALE, Route: INHALATION, Dose: 0, 1000, 5000 PPM 4 HR/D 5 D/WK FOR 78 WK (STUDY DURATION: LIFETIME), Dose: 0, 1000, 5000 PPM 4 HR/D 5 D/WK FOR 78 WK (STUDY DURATION: LIFETIME)) was “inactive; negative” and the carcinogen call (Species: RAT, Strain/Sex: SPRAGUE-DAWLEY/FEMALE, Route: INHALATION, Dose: 0, 1000, 5000 PPM 4 HR/D 5 D/WK FOR 104 WK (STUDY DURATION: LIFETIME), Dose: 0, 1000, 5000 PPM 4 HR/D 5 D/WK FOR 104 WK (STUDY DURATION: LIFETIME)) was “inactive; negative”. The carcinogen call (Species: RAT, Strain/Sex: SPRAGUE-DAWLEY/FEMALE, Route: INHALATION, Dose: 0, 1000, 5000 PPM IN AIR 4 HR/D 5 D/WK FOR 104 WK (STUDY DURATION: LIFETIME), Dose: 0, 1000, 5000 PPM IN AIR 4 HR/D 5 D/WK FOR 104 WK (STUDY DURATION: LIFETIME), Tumor Site: Type of Lesion: [BRAIN WAS ONLY SITE EVALUATED]) was “inactive; negative”, the carcinogen call (Species: RAT, Strain/Sex: SPRAGUE-DAWLEY/MALE, Route: INHALATION, Dose: 0, 1000, 5000 PPM 4 HR/D 5 D/WK FOR 104 WK (STUDY DURATION: LIFETIME), Dose: 0, 1000, 5000 PPM 4 HR/D 5 D/WK FOR 104 WK (STUDY DURATION: LIFETIME)) was “inactive; negative” and the carcinogen call (Species: RAT, Strain/Sex: SPRAGUE-DAWLEY/MALE, Route: INHALATION, Dose: 0, 1000, 5000 PPM IN AIR 4 HR/D 5 D/WK FOR 104 WK (STUDY DURATION: LIFETIME), Dose: 0, 1000, 5000 PPM IN AIR 4 HR/D 5 D/WK FOR 104 WK (STUDY DURATION: LIFETIME), Tumor Site: Type of Lesion: [BRAIN WAS ONLY SITE EVALUATED]) was “inactive; negative”.
In the case of `CCCCN(N=O)C(CCC)OC(C)=O` (stereo not given), the carcinogen call (Species: RAT, Strain/Sex: F344/FEMALE, Route: SUBCUTANEOUS, Dose: 38 UMOL/KG IN OLIVE OIL 1/WK FOR 10 WK, Tumor Site: Type of Lesion: INJECTION SITE: MALIGNANT FIBROUS HISTIOCYTOMA) is reported as “active; positive” and the carcinogen call (Species: RAT, Strain/Sex: F344/MALE, Route: SUBCUTANEOUS, Dose: 38 UMOL/KG IN OLIVE OIL 1/WK FOR 10 WK, Tumor Site: Type of Lesion: INJECTION SITE: MALIGNANT FIBROUS HISTIOCYTOMA, LUNG: ADENOMA) is reported as “active; positive”.
With `CCC(=O)OCCCCCC(C)C` the carcinogen call (Species: MOUSE, Strain/Sex: C3H/MALE, Route: DERMAL, Dose: 25 µL (19% W/V IN 70:30 ACETONE/HEPTANE APPLIED TO BACK 3 D/WK FOR LIFE (STUDY DURATION: LIFE)) was “inactive; negative”.
`Nc1ccc(Cl)cc1N` was tested, and the carcinogen call (Species: MOUSE, Strain/Sex: B6C3F1/FEMALE, Route: ORAL, Dose: 0, 0.7, 1.4% TWA, IN DIET FOR 78 WK (STUDY DURATION: 96-97 WK), Dose: 0, 0.7, 1.4% TWA, IN DIET FOR 78 WK (STUDY DURATION: 96-97 WK), Tumor Site: Type of Lesion: LIVER: HEPATOCELLULAR CARCINOMA, HEPATOCELLULAR ADENOMA OR CARCINOMA) was “active; positive”, the carcinogen call (Species: MOUSE, Strain/Sex: B6C3F1/MALE, Route: ORAL, Dose: 0, 0.7, 1.4% TWA, IN DIET FOR 78 WK (STUDY DURATION: 95-97 WK), Dose: 0, 0.7, 1.4% TWA, IN DIET FOR 78 WK (STUDY DURATION: 95-97 WK), Tumor Site: Type of Lesion: LIVER: HEPATOCELLULAR CARCINOMA, HEPATOCELLULAR ADENOMA OR CARCINOMA) was “active; positive” and the carcinogen call (Species: RAT, Strain/Sex: F344/FEMALE, Route: ORAL, Dose: 0, 0.5, 1.0% IN DIET FOR 78 WK (STUDY DURATION: 106 WK), Dose: 0, 0.5, 1.0% IN DIET FOR 78 WK (STUDY DURATION: 106 WK), Tumor Site: Type of Lesion: URINARY BLADDER: PAPILLARY CARCINOMA OR TRANSITIONAL CELL CARCINOMA, PAPILLARY CARCINOMA OR TRANSITIONAL CELL CARCINOMA) was “active; positive”. The carcinogen call (Species: RAT, Strain/Sex: F344/MALE, Route: ORAL, Dose: 0, 0.5, 1.0% IN DIET FOR 78 WK (STUDY DURATION: 105-106 WK), Dose: 0, 0.5, 1.0% IN DIET FOR 78 WK (STUDY DURATION: 105-106 WK), Tumor Site: Type of Lesion: URINARY BLADDER: TRANSITIONAL CELL CARCINOMA, PAPILLOMA (NOS) OR TRANSITIONAL CELL PAPILLOMA OR TRANSITIONAL CELL CARCIN) was “active; positive”.
With `C=CC(=O)OCCCC` the carcinogen call (Species: MOUSE, Strain/Sex: C3H/MALE, Route: DERMAL, Dose: 0, 0.2 MG IN 25 µL ACETONE 3/WK FOR LIFESPAN (STUDY DURATION: LIFESPAN)) was “inactive; negative”, the carcinogen call (Species: RAT, Strain/Sex: SPRAGUE-DAWLEY/FEMALE, Route: INHALATION, Dose: 0, 15, 45, 135 PPM 6 HR/D 5 D/WK FOR 24 MO (STUDY DURATION: 130 WK), Dose: 0, 15, 45, 135 PPM 6 HR/D 5 D/WK FOR 24 MO (STUDY DURATION: 130 WK)) was “inactive; negative” and the carcinogen call (Species: RAT, Strain/Sex: SPRAGUE-DAWLEY/MALE, Route: INHALATION, Dose: 0, 15, 45, 135 PPM 6 HR/D 5 D/WK FOR 24 MO (STUDY DURATION: 130 WK), Dose: 0, 15, 45, 135 PPM 6 HR/D 5 D/WK FOR 24 MO (STUDY DURATION: 130 WK)) was “inactive; negative”.
In the case of `COc1nn(CSP(=S)(OC)OC)c(=O)s1`, the carcinogen call (Species: DOG, Strain/Sex: BEAGLE/FEMALE, Route: ORAL, Dose: 0, 0.5, 2, 4, 40, 140 PPM IN DIET FOR 1 YR (STUDY DURATION: 1 YR), Dose: 0, 0.5, 2, 4, 40, 140 PPM IN DIET FOR 1 YR (STUDY DURATION: 1 YR)) is reported as “inactive; negative” and the carcinogen call (Species: DOG, Strain/Sex: BEAGLE/MALE, Route: ORAL, Dose: 0, 0.5, 2, 4, 40, 140 PPM IN DIET FOR 1 YR (STUDY DURATION: 1 YR), Dose: 0, 0.5, 2, 4, 40, 140 PPM IN DIET FOR 1 YR (STUDY DURATION: 1 YR)) is reported as “inactive; negative”.
`CCN(CC)c1ccc(C(=C2C=CC(=[N+](CC)CC)C=C2)c2ccc(S(=O)(=O)O)cc2S(=O)(=O)[O-])cc1` was tested, and the carcinogen call (Species: RAT, Route: SUBCUTANEOUS, INTRAMUSCULAR, Tumor Site: Type of Lesion: INJECTION SITE) was “active; positive”.
With `CCCOC(=O)c1cc(O)c(O)c(O)c1` the carcinogen call (Species: MOUSE, Strain/Sex: B6C3F1/FEMALE, Route: ORAL, Dose: 0, 6000, 12000 PPM IN DIET FOR 103 WK (STUDY DURATION: 103 WK), Dose: 0, 6000, 12000 PPM IN DIET FOR 103 WK (STUDY DURATION: 103 WK)) was “inactive; negative”, the carcinogen call (Species: MOUSE, Strain/Sex: B6C3F1/MALE, Route: ORAL, Dose: 0, 6000, 12000 PPM IN DIET FOR 103 WK (STUDY DURATION: 103 WK), Dose: 0, 6000, 12000 PPM IN DIET FOR 103 WK (STUDY DURATION: 103 WK), Tumor Site: Type of Lesion: HEMATOPOIETIC SYSTEM: MALIGNANT LYMPHOMA) was “equivocal” and the carcinogen call (Species: RAT, Strain/Sex: F344/FEMALE, Route: ORAL, Dose: 0, 6000, 12000 PPM IN DIET FOR 103 WK (STUDY DURATION: 103 WK), Dose: 0, 6000, 12000 PPM IN DIET FOR 103 WK (STUDY DURATION: 103 WK)) was “inactive; negative”. The carcinogen call (Species: RAT, Strain/Sex: F344/MALE, Route: ORAL, Dose: 0, 6000, 12000 PPM IN DIET FOR 103 WK (STUDY DURATION: 103 WK), Dose: 0, 6000, 12000 PPM IN DIET FOR 103 WK (STUDY DURATION: 103 WK), Tumor Site: Type of Lesion: PREPUTIAL GLAND: CARCINOMA OR ADENOMA OR ADENOCARCINOMA, PANCREAS: ISLET CELL ADENOMA OR CARCINOMA, ADRENAL GLAND: PHEOC, Tumor Site: Type of Lesion: PREPUTIAL GLAND: CARCINOMA OR ADENOMA OR ADENOCARCINOMA, PANCREAS: ISLET CELL ADENOMA OR CARCINOMA, ADRENAL GLAND: PHEOC) was “equivocal”.
`O[C@H]1[C@H]2O[C@H]2C=C[C@@H]1O` was tested, and the carcinogen call (Species: MOUSE, Strain/Sex: SWISS/FEMALE, Route: INTRAPERITONEAL, Dose: 0, 13.7 UMOL ADMINISTERED AS 3 UNEQUAL DOSES (1/7, 2/7, AND 4/7 OF THE TOTAL DOSE) OVER A 2-WK PERIOD (STUDY DURATION: 2, Tumor Site: Type of Lesion: LUNG: ADENOMA) was “active; positive” and the carcinogen call (Species: MOUSE, Strain/Sex: SWISS/MALE, Route: INTRAPERITONEAL, Dose: 0, 13.7 UMOL ADMINISTERED AS 3 UNEQUAL DOSES (1/7, 2/7, AND 4/7 OF THE TOTAL DOSE) OVER A 2-WK PERIOD (STUDY DURATION: 2, Tumor Site: Type of Lesion: LUNG: ADENOMA) was “active; positive”.
